Laboratory results taken from patent US5691348A, “Pyridyl imidazole derivatives and processes for the preparation thereof” (Daewoo Electronics Co., Ltd., priority 1994, dated 1997).

Key:
angiotensin II receptor = experiment: Angiotensin II receptor binding assay ([3H] angiotensin II); parameters: species or system rat (Sprague-Dawley adrenal cortex/medulla; Wistar liver); conditions: 25° C., 60 minutes, test concentration not given
Procedure: 1. Angiotensin II receptor binding assay
In accordance with the procedure disclosed in Chiu, A. T. et al., Eur. J. Pharm., 157, 13(1981), a ligand marked with a radioisotope was reacted with an angiotensin II receptor and the reactant was filtered with a glass fiber to remove unreacted ligand. After washing the filter, the amount of the remaining isotope was measured to determine the binding activity of the ligand, as described below in detail.
Sprague-Dawley rats and Wistar rats of 250 to 350 g (from The Korea Research Institute of Chemical Technology) were tested and the test procedures were carried out at 4° C., unless otherwise specified. Adrenal gland was separated from the Sprague-Dawley rats (liver, in the case of Wistar rats) into cortex and medulla. The separated adrenal cortex and medulla were washed with a sucrose buffer solution (0.2M sucrose, 1 mM EDTA, 10 mM Tris, Ph 7.2) and homogenized in the same buffer solution by using a Teflon pestle and a Brinkmann homogenizer. The homogenates were centrifuged at 3,000× g for 10 minutes to remove precipitates and further centrifuged at 12,000× g for 13 minutes. The final supernatants were centrifuged at 102,000× g for 1 hour to obtain precipitates, which were washed with a Tris buffer solution (50 mM Tris, 5 mM MgCl2, pH 7.2) and recentrifuged at 102,000× g for 1 hour. The resulting precipitates were immediately processed at the following step or stored at -70° C.
The precipitates were suspended in a Tris buffer solution. The amount of protein was determined by using a Bio-Rad DC protein analyzing kit and the protein concentration was adjusted to the amounts of: 0.2 to 0.3 mg/ml (Sprague-Dawley rat: adrenal cortex), 1.5 to 2.0 mg/ml (Sprague-Dawley rat: adrenal medulla), and 1.5 to 2.0 mg/ml (Wistar rat: liver). To the suspension, bovine serum albumin(BSA) was added to a concentration of 0.25 wt % and the resultant was immediately processed at the following step or stored at -70° C.
50 μl (based on ligand) of [^3 H] angiotensin II (NEN, NET-446) and 10 μl of each of the test compounds with various concentrations were added to the buffer solution (50 mM Tris (pH 7.2), 5 mM MgCl2, 0.25% BSA) to adjust the final volume to be 0.5 ml. 100 μl of the receptor suspension was added thereto and the resulting solution was reacted for 60 minutes while stirring in a water bath at 25° C. 3 ml of cold buffer solution for analysis was added to cease the reaction. The isotope which was bound to the receptor was isolated from the resultant by using Brandel Cell Harvester System with Whatman glass fiber GF/C. After washing the filter, the radioactivity of the filter was determined by using a liquid scintillation counter. Binding inhibition(%) of the test compound was calculated as follows:
Binding Inhibition(%)=[{(T-B)-(S-B)}/(T-B)]×100
wherein T is the radioactivity (cpm) of the reaction product untreated with the test compound, S is the radioactivity (cpm) of the reaction product treated with the test compound, and B is the radioactivity (cpm) of blank test.

renal hypertensive rat [1] = experiment: Blood pressure lowering effect in renal hypertension; type: in vivo, Sprague-Dawley rat; conditions: intravenous or oral (not specified)
Source text: (§1) To induce renal hypertension, left renal artery of 4 week-old male Sprague-Dawley rat (from The Korea Research Institute of Chemical Technology) was ligated. The rat was anesthetized with ether and the surgical region on the left abdomen of the rat was shaved, disinfected, and then incised about 1 cm vertically. The renal artery near abdominal aorta was isolated carefully from surrounding tissues and veins, and then ligated completely with a suture (4/0 sterile surgical silk). The muscular strata and skin of the surgical area were sutured with a suture (4/0 sterile surgical silk). The surgical region was disinfected to prevent infection and thereafter, 200 to 250 mg/kg/day of cephazolin sodium was injected intramuscularly for 2 days. 6 to 8 days after the ligation, rats showing systolic pressure of more than 180 mmHg were selected for renal hypertension test. The blood pressure was determined by a tail-cuff method from the tail under unanesthetized condition (Gerold, M. et al., Arzneimittel-Forsch., 18, 1285(1968)).
(§2) Each of the compounds to be tested was administered intravenously or orally into the renal hypertensive rat. The blood pressure of the rat was determined by direct method (Chiu, A. T. et al., J. Pharmacol. Exp. Ther., 250, 867(1989)) using a catheter. The rat was anesthetized with ketamine hydrochloride (125 mg/kg, i.p.) and a catheter was filled with saline and inserted into a carotid artery and […]. The surgical area was sutured with a metal clip. The rat was relaxed at least 3 hours and the catheter in the carotid artery was adapted to an isotec pressure transducer to determine the blood pressure and heart rate with a physiograph (Linearcorder WR3310). After the blood pressure was stabilized, the test compound was administered intravenously or orally. For intravenous administration, the administered volume and washing volume were 1.0 ml/kg and 0.2 ml, respectively. The blood pressure and heart rate were measured in regular intervals up to 24 hours after the administration of the test compound and compared with those measured after the administration of the control compound Losartan.
(§3) The test compound was dissolved in 0.05N KOH for intravenous administration and suspended in Tween 80 for oral administration.

unanesthetized dogs [2] = experiment: Maximum blood pressure lowering effect in unanesthetized dogs at different amounts; type: in vivo, dog
Procedure: (§4) A number of dog was fed freely in a feeding room and those weighing 7 to 12 kg in good health were selected regardless of their gender.
(§5) The test dog was anesthetized with 30 mg/kg of pentobarbital sodium by intravenous injection and the left femoral artery and femoral vein were separated carefully. Silicone catheter, specially prepared and filled with saline treated with heparin (1,000 IU/ml), was cannulated into the blood vessels. After the surgery, the dog was constrained to measure the blood pressure continuously with Gould 2000 physiograph adapted to a Grass P23XL pressure transducer; and the heart rate was monitored with ECG/Biotacho amplifier. The dog was tested at least 2 days after the surgery.
10 mg/kg of furosemide was injected intramuscularly 18 hours (in case of intravenous injection, 2 hours) before the beginning of the test (administration of the test compound) to improve the activity of renin in blood plasma. After the injection of furosemide, neither food nor water was provided. The test compound was suspended in Tween 80 and administered in an amount of 20 mg/kg orally. The blood pressure and heart rate were measured up to 8 hours after the administration of each test compound.
The maximum blood pressure lowering effect of the present compounds and the control compounds were determined in different amounts of administration using the same method as (i) and the results are given in Table 4.

renal hypertensive rat [3] = experiment: Blood pressure lowering effect with respect to dose (renal hypertensive rats); type: in vivo, Sprague-Dawley rat; conditions: oral
Source text: as §1, §2, §3
The present compounds, Losartan(Dup 753) and the Merck compound were administrated orally to rats in 10, 3 and 1 mg/kg under the same condition as in (ii) and the blood pressure lowering effect was determined.

unanesthetized dogs [4] = experiment: Blood pressure variation with time in unanesthetized dogs; type: in vivo, dog; conditions: for Maximum Blood Pressure Lowering Effect: 3 mg, oral
Procedure: as §4, §5
10 mg/kg of furosemide was injected intramuscularly 18 hours (in case of intravenous injection, 2 hours) before the beginning of the test (administration of the test compound) to improve the activity of renin in blood plasma. After the injection of furosemide, neither food nor water was provided. […] The blood pressure and heart rate were measured up to 8 hours after the administration of each test compound.

## CCCCc1nc2cc(-c3cc[n+]([O-])cc3)c(CO)nc2n1Cc1ccc(-c2ccccc2-c2nn[nH]n2)cc1 [Example 2, 2-Butyl-5-hyroxymethyl-6-(1-oxy-pyridin-4-yl)-3-[2'-(1H-tetrazol-5-yl)-biphenyl-4-ylmethyl]-3H-imidazo[4,5-b]pyridine]
Angiotensin II receptor
  Binding Inhibition: 96.9%

## CCCCc1nc2cc(-c3cccc[n+]3[O-])c(C(=O)OC)nc2n1Cc1ccc(-c2ccccc2-c2nn[nH]n2)cc1 [Example 4, 2-Butyl-5-methoxycarbonyl-6-(1-oxy-pyridin-2-yl)-3-[2'-(1H-tetrazol-5-yl)-biphenyl-4-ylmethyl]-3H-imidazo[4,5-b]pyridine]
Angiotensin II receptor
  Binding Inhibition: 92.1%

## CCCCc1nc2cc(-c3cccc[n+]3[O-])c(C(=O)N(CC)CC)nc2n1Cc1ccc(-c2ccccc2-c2nn[nH]n2)cc1 [Example 5, 2-Butyl-6-(1-oxy-pyridin-2-yl)-3-[2'-(1H-tetrazol-5-yl)-biphenyl-4-ylmethyl]-3H-imidazo[4,5-b]pyridin-5-carboxylate Diethylamide]
Angiotensin II receptor
  Binding Inhibition: 60.3%

## CCCCc1nc2cc(-c3ccc[n+]([O-])c3)c(C)nc2n1Cc1ccc(-c2ccccc2-c2nn[nH]n2)cc1 [Example 6, 2-Butyl-5-methyl-6-(1-oxy-pyridin-3-yl)-3-[2'-(1H-tetrazol-5-yl)-biphenyl-4-ylmethyl]-3H-imidazo[4,5-b]pyridine]
Angiotensin II receptor
  Binding Inhibition: 94.6%
Renal hypertensive rat [1]; Amount 3 mg
  Maximum Blood Pressure Lowering Effect: -38%
Unanesthetized dogs [2]; 0.3 mg/kg
  Maximum Blood Pressure Lowering Effect: -9%
Unanesthetized dogs [2]; 1 mg/kg
  Maximum Blood Pressure Lowering Effect: -12%

## CCCCc1nc2cc(-c3cc[n+]([O-])cc3)c(C)nc2n1Cc1ccc(-c2ccccc2-c2nn[nH]n2)cc1 [Example 7, 2-Butyl-5-methyl-6-(1-oxy-pyridin-4-yl)-3-[2'-(1H-tetrazol-5-yl)-biphenyl-4-ylmethyl]-3H-imidazo[4,5-b]pyridine]
Angiotensin II receptor
  Binding Inhibition: 95.5%

## CCCCc1nc(Cl)c(CO)n1Cc1ccc(-c2ccccc2-c2nn[nH]n2)cc1 [Losartan (Dup 753), Losartan, reference compound]
Angiotensin II receptor
  Binding Inhibition: 48.0%
Renal hypertensive rat [1]; Amount 10 mg
  Maximum Blood Pressure Lowering Effect: -27%
Renal hypertensive rat [3]; 3 mg/kg
  Maximum Blood Pressure Lowering Effect: -30%
Renal hypertensive rat [3]; 10 mg/kg
  Maximum Blood Pressure Lowering Effect: -46%
Unanesthetized dogs [4]; 0.5 hr
  Maximum Blood Pressure Lowering Effect: -11.0%
Unanesthetized dogs [4]; 1 hr
  Maximum Blood Pressure Lowering Effect: -12.3%
Unanesthetized dogs [4]; 2 hr
  Maximum Blood Pressure Lowering Effect: -12.8%
Unanesthetized dogs [4]; 4 hr
  Maximum Blood Pressure Lowering Effect: -9.9%
Unanesthetized dogs [4]; 6 hr
  Maximum Blood Pressure Lowering Effect: -10.1%
Unanesthetized dogs [4]; 8 hr
  Maximum Blood Pressure Lowering Effect: -8.2%
Unanesthetized dogs [4]; Table 3, present compounds 1.0 mg, control compound 3 mg
  time for which the maximum blood pressure lowering effect lasted after the administration: up to 2 hours
Unanesthetized dogs [2]; 3 mg/kg
  Maximum Blood Pressure Lowering Effect: -13%
Unanesthetized dogs [2]; 10 mg/kg
  Maximum Blood Pressure Lowering Effect: -23%
